Reference: PubChem BioAssay (NCI)
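A five-concentration, 48-hour dose response in 96-well plates underlies each endpoint, interpolated linearly between surrounding concentrations. Abbreviation: GI50, concentration required for 50% inhibition of growth. The concentration for full growth arrest is given as TGI.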

Each compound was assayed on RXF 393 renal (assay: DTP human tumour cell line panel, 48 h).

| SMILES | GI50 [µM] | TGI [µM] |
| --- | --- | --- |
| O=C1Nc2ccccc2/C1=N\[O-].O=C1Nc2ccccc2/C1=N\[O-].[Cu+2] | > 100 | > 100 |
| CN1C(=O)N(C)C2C1NN=c1s/c(=C\c3ccc(Cl)cc3Cl)c(=O)n12 (centres undefined) | 0.0862 | 0.925 |
| Cc1ccc(NC(=O)CC2CC2)cc1-c1ccc(C(=O)NCC2CC2)cc1 | > 25 | > 25 |
| CCOC(=O)Nc1ccc(C)c(NC(=O)OCC)c1 | – | > 100 |
| COc1cc(-n2cc(-c3ccc(F)cc3)[nH]c2=O)cc(OC)c1OC | > 100 | > 100 |

The compounds below were run on MDA-MB-435 (assay: DTP human tumour cell line panel, 48 h).

| SMILES | GI50 [µM] | TGI [µM] |
| --- | --- | --- |
| O=C1Nc2ccccc2/C1=N\[O-].O=C1Nc2ccccc2/C1=N\[O-].[Cu+2] | > 100 | > 100 |
| CN1C(=O)N(C)C2C1NN=c1s/c(=C\c3ccc(Cl)cc3Cl)c(=O)n12 (centres undefined) | 0.0333 | 2.11 |
| Cc1ccc(NC(=O)CC2CC2)cc1-c1ccc(C(=O)NCC2CC2)cc1 | > 19.5 | > 25 |
| CCOC(=O)Nc1ccc(C)c(NC(=O)OCC)c1 | – | > 100 |
| COc1cc(-n2cc(-c3ccc(F)cc3)[nH]c2=O)cc(OC)c1OC | > 100 | > 100 |

These compounds were tested on SNB-19 CNS (assay: DTP human tumour cell line panel, 48 h).

| SMILES | GI50 [µM] | TGI [µM] |
| --- | --- | --- |
| O=C1Nc2ccccc2/C1=N\[O-].O=C1Nc2ccccc2/C1=N\[O-].[Cu+2] | > 100 | > 100 |
| CN1C(=O)N(C)C2C1NN=c1s/c(=C\c3ccc(Cl)cc3Cl)c(=O)n12 (centres undefined) | 0.339 | > 100 |
| Cc1ccc(NC(=O)CC2CC2)cc1-c1ccc(C(=O)NCC2CC2)cc1 | > 25 | > 25 |
| CCOC(=O)Nc1ccc(C)c(NC(=O)OCC)c1 | – | > 100 |
| COc1cc(-n2cc(-c3ccc(F)cc3)[nH]c2=O)cc(OC)c1OC | > 100 | > 100 |

Each compound was assayed on COLO 205 colon (assay: DTP human tumour cell line panel, 48 h).

| SMILES | GI50 [µM] | TGI [µM] |
| --- | --- | --- |
| O=C1Nc2ccccc2/C1=N\[O-].O=C1Nc2ccccc2/C1=N\[O-].[Cu+2] | > 100 | > 100 |
| CN1C(=O)N(C)C2C1NN=c1s/c(=C\c3ccc(Cl)cc3Cl)c(=O)n12 (centres undefined) | 0.0951 | 2.58 |
| Cc1ccc(NC(=O)CC2CC2)cc1-c1ccc(C(=O)NCC2CC2)cc1 | > 25 | > 25 |
| CCOC(=O)Nc1ccc(C)c(NC(=O)OCC)c1 | – | > 100 |
| COc1cc(-n2cc(-c3ccc(F)cc3)[nH]c2=O)cc(OC)c1OC | > 100 | > 100 |

These compounds were tested on SK-OV-3 ovarian (assay: DTP human tumour cell line panel, 48 h).

| SMILES | GI50 [µM] | TGI [µM] |
| --- | --- | --- |
| O=C1Nc2ccccc2/C1=N\[O-].O=C1Nc2ccccc2/C1=N\[O-].[Cu+2] | > 100 | > 100 |
| CN1C(=O)N(C)C2C1NN=c1s/c(=C\c3ccc(Cl)cc3Cl)c(=O)n12 (centres undefined) | 0.754 | > 100 |
| Cc1ccc(NC(=O)CC2CC2)cc1-c1ccc(C(=O)NCC2CC2)cc1 | > 25 | > 25 |
| CCOC(=O)Nc1ccc(C)c(NC(=O)OCC)c1 | – | > 100 |
| COc1cc(-n2cc(-c3ccc(F)cc3)[nH]c2=O)cc(OC)c1OC | > 100 | > 100 |

What follows are compounds tested on EKVX NSCLC (assay: DTP human tumour cell line panel, 48 h).

| SMILES | GI50 [µM] | TGI [µM] |
| --- | --- | --- |
| O=C1Nc2ccccc2/C1=N\[O-].O=C1Nc2ccccc2/C1=N\[O-].[Cu+2] | > 100 | > 100 |
| CN1C(=O)N(C)C2C1NN=c1s/c(=C\c3ccc(Cl)cc3Cl)c(=O)n12 (centres undefined) | 0.425 | > 100 |
| Cc1ccc(NC(=O)CC2CC2)cc1-c1ccc(C(=O)NCC2CC2)cc1 | > 25 | > 25 |
| CCOC(=O)Nc1ccc(C)c(NC(=O)OCC)c1 | – | > 100 |
| COc1cc(-n2cc(-c3ccc(F)cc3)[nH]c2=O)cc(OC)c1OC | > 100 | > 100 |

What follows are compounds tested on UACC-62 melanoma (assay: DTP human tumour cell line panel, 48 h).

| SMILES | GI50 [µM] | TGI [µM] |
| --- | --- | --- |
| O=C1Nc2ccccc2/C1=N\[O-].O=C1Nc2ccccc2/C1=N\[O-].[Cu+2] | > 100 | > 100 |
| CN1C(=O)N(C)C2C1NN=c1s/c(=C\c3ccc(Cl)cc3Cl)c(=O)n12 (centres undefined) | 0.0709 | > 65.2 |
| Cc1ccc(NC(=O)CC2CC2)cc1-c1ccc(C(=O)NCC2CC2)cc1 | > 21.7 | > 25 |
| CCOC(=O)Nc1ccc(C)c(NC(=O)OCC)c1 | – | > 100 |
| COc1cc(-n2cc(-c3ccc(F)cc3)[nH]c2=O)cc(OC)c1OC | > 100 | > 100 |

What follows are compounds tested on SF-539 CNS (assay: DTP human tumour cell line panel, 48 h).

| SMILES | GI50 [µM] | TGI [µM] |
| --- | --- | --- |
| O=C1Nc2ccccc2/C1=N\[O-].O=C1Nc2ccccc2/C1=N\[O-].[Cu+2] | > 100 | > 100 |
| CN1C(=O)N(C)C2C1NN=c1s/c(=C\c3ccc(Cl)cc3Cl)c(=O)n12 (centres undefined) | 0.131 | 3.25 |
| Cc1ccc(NC(=O)CC2CC2)cc1-c1ccc(C(=O)NCC2CC2)cc1 | > 25 | > 25 |
| CCOC(=O)Nc1ccc(C)c(NC(=O)OCC)c1 | – | > 100 |
| COc1cc(-n2cc(-c3ccc(F)cc3)[nH]c2=O)cc(OC)c1OC | > 100 | > 100 |

Each compound was assayed on NCI-H460 lung (assay: DTP human tumour cell line panel, 48 h).

| SMILES | GI50 [µM] | TGI [µM] |
| --- | --- | --- |
| O=C1Nc2ccccc2/C1=N\[O-].O=C1Nc2ccccc2/C1=N\[O-].[Cu+2] | > 100 | > 100 |
| CN1C(=O)N(C)C2C1NN=c1s/c(=C\c3ccc(Cl)cc3Cl)c(=O)n12 (centres undefined) | 0.199 | > 94.3 |
| Cc1ccc(NC(=O)CC2CC2)cc1-c1ccc(C(=O)NCC2CC2)cc1 | > 25 | > 25 |
| CCOC(=O)Nc1ccc(C)c(NC(=O)OCC)c1 | – | > 100 |
| COc1cc(-n2cc(-c3ccc(F)cc3)[nH]c2=O)cc(OC)c1OC | > 100 | > 100 |

These compounds were tested on HL-60(TB) leukemia (assay: DTP human tumour cell line panel, 48 h).

| SMILES | GI50 [µM] | TGI [µM] |
| --- | --- | --- |
| O=C1Nc2ccccc2/C1=N\[O-].O=C1Nc2ccccc2/C1=N\[O-].[Cu+2] | > 100 | > 100 |
| CN1C(=O)N(C)C2C1NN=c1s/c(=C\c3ccc(Cl)cc3Cl)c(=O)n12 (centres undefined) | 0.264 | – |
| Cc1ccc(NC(=O)CC2CC2)cc1-c1ccc(C(=O)NCC2CC2)cc1 | > 24.2 | > 25 |
| CCOC(=O)Nc1ccc(C)c(NC(=O)OCC)c1 | – | > 100 |
| COc1cc(-n2cc(-c3ccc(F)cc3)[nH]c2=O)cc(OC)c1OC | > 100 | > 100 |
